Data set [1] is described as follows: Preliminary in vivo study: serum LM 13765 by HPTLC after oral LM 13765. Further details: species or system rabbits (New Zealander strain). The following applies: rabbits, oral 100 mg/kg, samples 0.5-12 h. Here is the method: Drug/metabolite-free plasma or plasma spiked with fixed aliquots of LM 13765 or rabbit serum sample (0.2 ml) was taken in a glass centrifuge tube (15 ml capacity). Sufficient amount of acetonitrile was added to make the volume to 1.6 ml and vortexed at high speed for 1 min. The mixture was centrifuged (2500 rpm, 15 min) and the clear supernatant layer was transferred to another tube and dried over anhydrous sodium sulphate (0.25 g). Adequate volumes of the dried acetonitrile layer were spotted onto the TLC plate. Chromatographic estimations were performed using precoated silica gel 60 F254 TLC plates (prewashed with methanol and dried in air) under following conditions; A mobile phase, benzene:methanol (8:2 v/v); chamber saturation time, 60 min; temperature, 25±2°; development of plates, ascending mode; migration distance, 50 mm; slit dimension, 3×0.3 mm; wavelength of detection, 314 nm; band width, 4 mm; space between two bands, 4 mm; spraying rate, 10 μl/s.
Suitable volumes of standard solution of LM 13765 in acetonitrile or extracts of drug/metabolite-free plasma or rabbit serum samples, were applied on TLC plate under nitrogen stream using semiautomatic spotter. The plate was dried in air and developed at constant temperature (25±2°) using a mixture of benzene:methanol (8:2 v/v) as the mobile phase. […] Peak area values were used for quantitative determination. […]

Data set [2] is described as follows: Stability in plasma under storage conditions. Particulars: -20°, one day (24 h). It counts as in vitro ADME, rabbit. How it is done: The method was validated in terms of linearity, limit of quantitation, limit of detection, precision, accuracy and specificity. The linear response for LM 13765 spiked in plasma, was determined by analyzing corresponding samples five times for each concentration in the range of 12.5 to 100 ng/spot. The lowest concentration of the calibration range is taken as the limit of quantitation for LM 13765 while the limit of detection was determined by spotting concentrations of LM 13765 lower than the limit of quantitation. […] The recovery of LM 13765 from plasma (extraction efficiency) was determined by comparing peak areas obtained from plasma spiked with LM 13765 at concentration levels of 12.5, 25, 50, 75 and 100 ng/spot with the corresponding standards of LM 13765. Accuracy of the proposed method was determined by standard addition method at three different concentrations of LM 13765 in the range of 12.5 to 100 ng/spot. Specificity of the proposed method was assessed in terms of purity of chromatographic peak corresponding to LM 13765 by correlating the spectra scanned at peak start, peak apex and peak end positions of the spot corresponding to LM 13765. […] The sample was analyzed, on the same day as well as after 24 h storage, for the amounts of LM 13765. […]

For data set [3], the system named is serum cholesterol, triglycerides and HDL levels. Further details: method as in PMID 9037441. The following applies: cited from earlier work.
Data set [4] relates to mice. Particulars: up to the dose of 4.5 g/kg, earlier study reported in the introduction; cited from earlier work.
The subject of data set [5] is hyperlipidemic rats. The experiment in a line: Biological screening for antihyperlipidemic activity on hyperlipidemic rats. It counts as in vivo.

Entries after “also recorded” stand apart in the source; their conditions may differ.

Take `CCOC(=O)C(C#N)=C(NC=N)Nc1ccc(Cl)cc1` [LM 13765, N-[2-carbethoxy-2-cyano-1-(p-chloroanilino)vinyl]formamidine]: the “Parent LM 13765 in serum after oral administration (HPTLC spot Rf 0.21)” value in data set [1] is on record as “no spot corresponding to LM 13765”. In data set [2], the “Stability in plasma under storage conditions” value was “undergoes significant degradation in one day”. Besides, in data set [3], the “potency versus standard drug gemfibrozil in lowering serum cholesterol and triglycerides and elevating serum HDL” value is recorded as “more potent than the standard drug gemfibrozil”. Besides, in data set [4], the “mortality or behavioral changes after oral administration” value is “no mortality or behavioral changes”.

For the compound `CCOC(=O)C(C#N)=C(N)Nc1ccc(Cl)cc1` [LM 13765-C, ethyl 3-amino-2-cyano-3-(p-chloroanilino)acrylate], the “Stability in plasma under storage conditions” value in data set [2] is “stable”. The “antihyperlipidemic activity relative to parent compound LM 13765” value in data set [5] is listed as “less potent than the parent compound; also recorded: very good antihyperlipidemic activity but is less potent than the parent compound”.

These data come from publication PMC2846469, “Pharmacokinetic Study of a Novel Antihyperlipidemic Agent LM-13765- A Prodrug” (Indian Journal of Pharmaceutical Sciences, 2009).
